Results taken from patent publication US20120029187A1, “HALOALKYLSULFONANILIDE DERIVATIVE” (Nissan Chemical Industries, Ltd., priority 2009, published 2012).

Experiments:
Format in all cases: in vivo
bulrush [1] = assay: Test Example 1: herbicidal effects in preemergence treatment under submerged conditions; conditions: dose 2.52 g/a
In short: (§1)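 Scoring 0 (<5% mortality) to 5 (≥90%) was done three weeks after preemergence application to the water surface of submerged (4 cm) alluvial soil, doses given as g per are. Weeds were seeded and 2.5-leaf rice transplanted on the treatment day; greenhouse at 25–30 °C.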

ducksalad [2] = assay: as above; conditions: dose 2.52 g/a
In short: as §1

barnyardgrass [3] = assay: as above; conditions: dose 2.52 g/a
In short: as §1

transplanted rice = assay: Test Example 1: preemergence treatment under submerged conditions, effect on crop; conditions: dose 2.52 g/a
In short: as §1

bulrush [4] = assay: Test Example 2: herbicidal effects during the vegetation period under submerged conditions; conditions: treatment during the vegetation period under submerged conditions; dose 2.52 g/a
In short: (§2)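 Barnyardgrass, bulrush and ducksalad were co-sown in alluvial soil flooded to 4 cm and grown in a greenhouse at 25 to 30° C. At the 1- or 2-leaf stage, water-diluted emulsifiable concentrates went onto the water surface at set doses (g/a). Herbicidal effect was scored three weeks later on a graded scale.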

ducksalad [5] = assay: as above; conditions: treatment during the vegetation period under submerged conditions; dose 2.52 g/a
In short: as §2

barnyardgrass [6] = assay: as above; conditions: treatment during the vegetation period under submerged conditions; dose 2.52 g/a
In short: as §2

posumbu knotweed [7] = assay: Test Example 3: herbicidal effects in soil treatment
In short: (§3)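 Seeds were sown in sterilized diluvial soil and covered with about 1.5 cm of soil. Compounds, formulated as emulsifiable concentrates and diluted with water, were sprayed evenly over the soil surface at set doses in g/a. Herbicidal effect was scored on a rating scale three weeks later.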

velvetleaf [8] = assay: as above
In short: as §3

wild oat [9] = assay: as above
In short: as §3

redroot pigweed [10] = assay: as above
In short: as §3

Italian ryegrass [11] = assay: as above
In short: as §3

common ragweed [12] = assay: as above
In short: as §3

giant foxtail [13] = assay: as above
In short: as §3

water foxtail [14] = assay: as above
In short: as §3

large crabgrass [15] = assay: as above
In short: as §3

common chickweed [16] = assay: as above
In short: as §3

barnyardgrass [17] = assay: as above
In short: as §3

common lambsquater [18] = assay: as above
In short: as §3

beadstraw = assay: Test Example 4: herbicidal effect in foliage treatment; conditions: three weeks after application
In short: (§4)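 Sowing in sterilized diluvial soil, ~1.5 cm cover; growth 14 d, 25–30° C greenhouse; foliar spray of water-diluted EC at predetermined g/a; scoring 3 wk later on graded scale.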

posumbu knotweed [19] = assay: as above; conditions: three weeks after application
In short: as §4

velvetleaf [20] = assay: as above; conditions: three weeks after application
In short: as §4

wild oat [21] = assay: as above; conditions: three weeks after application
In short: as §4

redroot pigweed [22] = assay: as above; conditions: three weeks after application
In short: as §4

Italian ryegrass [23] = assay: as above; conditions: three weeks after application
In short: as §4

common ragweed [24] = assay: as above; conditions: three weeks after application
In short: as §4

giant foxtail [25] = assay: as above; conditions: three weeks after application
In short: as §4

water foxtail [26] = assay: as above; conditions: three weeks after application
In short: as §4

large crabgrass [27] = assay: as above; conditions: three weeks after application
In short: as §4

common chickweed [28] = assay: as above; conditions: three weeks after application
In short: as §4

barnyardgrass [29] = assay: as above; conditions: three weeks after application
In short: as §4

common lambsquater [30] = assay: as above; conditions: three weeks after application
In short: as §4

## O=C1CC(c2ccccc2)OCN1Cc1ccccc1NS(=O)(=O)C(F)(F)F (stereo not shown) [II-9]
Bulrush [1]
  B: bulrush, herbicidal effect (evaluation scale 0-5): 5 (mortality of 90% or above (nearly complete death))
Ducksalad [2]
  C: ducksalad, herbicidal effect (evaluation scale 0-5): 5 (mortality of 90% or above (nearly complete death))
Barnyardgrass [3]
  A: barnyardgrass, herbicidal effect (evaluation scale 0-5): 5 (mortality of 90% or above (nearly complete death))
Transplanted rice
  a: transplanted rice, effect on crop (evaluation scale 0-5): 0 (mortality of less than 5% (almost ineffective))
Bulrush [4]
  B: bulrush, herbicidal effect (evaluation scale 0-5): 5 (mortality of 90% or above (nearly complete death))
Ducksalad [5]
  C: ducksalad, herbicidal effect (evaluation scale 0-5): 5 (mortality of 90% or above (nearly complete death))
Barnyardgrass [6]
  A: barnyardgrass, herbicidal effect (evaluation scale 0-5): 5 (mortality of 90% or above (nearly complete death))
Posumbu knotweed [7]; dose 3.2 g/a
  M: posumbu knotweed, herbicidal effect (evaluation scale 0-5): 5 (mortality of 90% or above (nearly complete death))
Velvetleaf [8]; dose 3.2 g/a
  I: velvetleaf, herbicidal effect (evaluation scale 0-5): 5 (mortality of 90% or above (nearly complete death))
Wild oat [9]; dose 3.2 g/a
  F: wild oat, herbicidal effect (evaluation scale 0-5): 3 (mortality of at least 40% and less than 70%)
Redroot pigweed [10]; dose 3.2 g/a
  K: redroot pigweed, herbicidal effect (evaluation scale 0-5): 0 (mortality of less than 5% (almost ineffective))
Italian ryegrass [11]; dose 3.2 g/a
  H: Italian ryegrass, herbicidal effect (evaluation scale 0-5): 4 (mortality of at least 70% and less than 90%)
Common ragweed [12]; dose 3.2 g/a
  J: common ragweed, herbicidal effect (evaluation scale 0-5): 0 (mortality of less than 5% (almost ineffective))
Giant foxtail [13]; dose 3.2 g/a
  E: giant foxtail, herbicidal effect (evaluation scale 0-5): 4 (mortality of at least 70% and less than 90%)
Water foxtail [14]; dose 3.2 g/a
  G: water foxtail, herbicidal effect (evaluation scale 0-5): 5 (mortality of 90% or above (nearly complete death))
Large crabgrass [15]; dose 3.2 g/a
  D: large crabgrass, herbicidal effect (evaluation scale 0-5): 5 (mortality of 90% or above (nearly complete death))
Common chickweed [16]; dose 3.2 g/a
  N: common chickweed, herbicidal effect (evaluation scale 0-5): 3 (mortality of at least 40% and less than 70%)
Barnyardgrass [17]; dose 3.2 g/a
  A: barnyardgrass, herbicidal effect (evaluation scale 0-5): 5 (mortality of 90% or above (nearly complete death))
Common lambsquater [18]; dose 3.2 g/a
  L: common lambsquater, herbicidal effect (evaluation scale 0-5): 0 (mortality of less than 5% (almost ineffective))
beadstraw; dose 3.2 g/a
  O: beadstraw, herbicidal effect: 4 (mortality of at least 70% and less than 90%)
Posumbu knotweed [19]; dose 3.2 g/a
  M: posumbu knotweed, herbicidal effect: 5 (mortality of 90% or above (nearly complete death))
Velvetleaf [20]; dose 3.2 g/a
  I: velvetleaf, herbicidal effect: 1 (mortality of at least 5% and less than 20%)
Wild oat [21]; dose 3.2 g/a
  F: wild oat, herbicidal effect: 0 (mortality of less than 5% (almost ineffective))
Redroot pigweed [22]; dose 3.2 g/a
  K: redroot pigweed, herbicidal effect: 0 (mortality of less than 5% (almost ineffective))
Italian ryegrass [23]; dose 3.2 g/a
  H: Italian ryegrass, herbicidal effect: 1 (mortality of at least 5% and less than 20%)
Common ragweed [24]; dose 3.2 g/a
  J: common ragweed, herbicidal effect: 3 (mortality of at least 40% and less than 70%)
Giant foxtail [25]; dose 3.2 g/a
  E: giant foxtail, herbicidal effect: 4 (mortality of at least 70% and less than 90%)
Water foxtail [26]; dose 3.2 g/a
  G: water foxtail, herbicidal effect: 4 (mortality of at least 70% and less than 90%)
Large crabgrass [27]; dose 3.2 g/a
  D: large crabgrass, herbicidal effect: 0 (mortality of less than 5% (almost ineffective))
Common chickweed [28]; dose 3.2 g/a
  N: common chickweed, herbicidal effect: 3 (mortality of at least 40% and less than 70%)
Barnyardgrass [29]; dose 3.2 g/a
  A: barnyardgrass, herbicidal effect: 5 (mortality of 90% or above (nearly complete death))
Common lambsquater [30]; dose 3.2 g/a
  L: common lambsquater, herbicidal effect: 0 (mortality of less than 5% (almost ineffective))

## CCOC(=O)N(c1ccccc1CN1COCCC1=O)S(=O)(=O)C(F)(F)F [II-2]
Bulrush [1]
  B: bulrush, herbicidal effect (evaluation scale 0-5): 5 (mortality of 90% or above (nearly complete death))
Ducksalad [2]
  C: ducksalad, herbicidal effect (evaluation scale 0-5): 5 (mortality of 90% or above (nearly complete death))
Barnyardgrass [3]
  A: barnyardgrass, herbicidal effect (evaluation scale 0-5): 5 (mortality of 90% or above (nearly complete death))
Transplanted rice
  a: transplanted rice, effect on crop (evaluation scale 0-5): 1 (mortality of at least 5% and less than 20%)
Bulrush [4]
  B: bulrush, herbicidal effect (evaluation scale 0-5): 5 (mortality of 90% or above (nearly complete death))
Ducksalad [5]
  C: ducksalad, herbicidal effect (evaluation scale 0-5): 4 (mortality of at least 70% and less than 90%)
Barnyardgrass [6]
  A: barnyardgrass, herbicidal effect (evaluation scale 0-5): 5 (mortality of 90% or above (nearly complete death))
Posumbu knotweed [7]; dose 6.3 g/a
  M: posumbu knotweed, herbicidal effect (evaluation scale 0-5): 1 (mortality of at least 5% and less than 20%)
Velvetleaf [8]; dose 6.3 g/a
  I: velvetleaf, herbicidal effect (evaluation scale 0-5): 5 (mortality of 90% or above (nearly complete death))
Wild oat [9]; dose 6.3 g/a
  F: wild oat, herbicidal effect (evaluation scale 0-5): 0 (mortality of less than 5% (almost ineffective))
Redroot pigweed [10]; dose 6.3 g/a
  K: redroot pigweed, herbicidal effect (evaluation scale 0-5): 0 (mortality of less than 5% (almost ineffective))
Italian ryegrass [11]; dose 6.3 g/a
  H: Italian ryegrass, herbicidal effect (evaluation scale 0-5): 4 (mortality of at least 70% and less than 90%)
Common ragweed [12]; dose 6.3 g/a
  J: common ragweed, herbicidal effect (evaluation scale 0-5): 5 (mortality of 90% or above (nearly complete death))
Giant foxtail [13]; dose 6.3 g/a
  E: giant foxtail, herbicidal effect (evaluation scale 0-5): 5 (mortality of 90% or above (nearly complete death))
Water foxtail [14]; dose 6.3 g/a
  G: water foxtail, herbicidal effect (evaluation scale 0-5): 5 (mortality of 90% or above (nearly complete death))
Large crabgrass [15]; dose 6.3 g/a
  D: large crabgrass, herbicidal effect (evaluation scale 0-5): 5 (mortality of 90% or above (nearly complete death))
Common chickweed [16]; dose 6.3 g/a
  N: common chickweed, herbicidal effect (evaluation scale 0-5): 5 (mortality of 90% or above (nearly complete death))
Barnyardgrass [17]; dose 6.3 g/a
  A: barnyardgrass, herbicidal effect (evaluation scale 0-5): 5 (mortality of 90% or above (nearly complete death))
Common lambsquater [18]; dose 6.3 g/a
  L: common lambsquater, herbicidal effect (evaluation scale 0-5): 5 (mortality of 90% or above (nearly complete death))
beadstraw; dose 6.3 g/a
  O: beadstraw, herbicidal effect: 4 (mortality of at least 70% and less than 90%)
Posumbu knotweed [19]; dose 6.3 g/a
  M: posumbu knotweed, herbicidal effect: 3 (mortality of at least 40% and less than 70%)
Velvetleaf [20]; dose 6.3 g/a
  I: velvetleaf, herbicidal effect: 5 (mortality of 90% or above (nearly complete death))
Wild oat [21]; dose 6.3 g/a
  F: wild oat, herbicidal effect: 0 (mortality of less than 5% (almost ineffective))
Redroot pigweed [22]; dose 6.3 g/a
  K: redroot pigweed, herbicidal effect: 0 (mortality of less than 5% (almost ineffective))
Italian ryegrass [23]; dose 6.3 g/a
  H: Italian ryegrass, herbicidal effect: 4 (mortality of at least 70% and less than 90%)
Common ragweed [24]; dose 6.3 g/a
  J: common ragweed, herbicidal effect: 4 (mortality of at least 70% and less than 90%)
Giant foxtail [25]; dose 6.3 g/a
  E: giant foxtail, herbicidal effect: 5 (mortality of 90% or above (nearly complete death))
Water foxtail [26]; dose 6.3 g/a
  G: water foxtail, herbicidal effect: 5 (mortality of 90% or above (nearly complete death))
Large crabgrass [27]; dose 6.3 g/a
  D: large crabgrass, herbicidal effect: 5 (mortality of 90% or above (nearly complete death))
Common chickweed [28]; dose 6.3 g/a
  N: common chickweed, herbicidal effect: 3 (mortality of at least 40% and less than 70%)
Barnyardgrass [29]; dose 6.3 g/a
  A: barnyardgrass, herbicidal effect: 5 (mortality of 90% or above (nearly complete death))
Common lambsquater [30]; dose 6.3 g/a
  L: common lambsquater, herbicidal effect: 4 (mortality of at least 70% and less than 90%)
